{
  "source": "patent US20060275289A1",
  "about": "“Preventive or remedy for inflammatory bowel diseases containing anti-cd81 antibody as the active ingredient” (priority 2003, published 2006)",
  "key": {"[1]": {"tested_on": "intracellular IFN-γ", "type": "cell-based, mouse", "conditions": "SEB 1 μg/ml"}, "[2]": {"tested_on": "IBD-pathogenic cells (mesenteric lymph node cells and spleen cells of TNBS colitis mouse stimulated with Staphylococcal enterotoxin B)", "type": "cell-based"}, "[3]": {"tested_on": "normal mice", "conditions": "cells incubated 48 hours with 0.2 μg/ml SEB and 10 μM of compound A (condition C); cited from earlier work"}, "[4]": {"tested_on": "TNBS-induced colitis mouse", "experiment": "TNBS (2,4,6-trinitrobenzenesulfonic acid)-induced mouse colitis model", "type": "in vivo", "conditions": "antibody 0.1 mg/head i.p. on division day and day 2, SSZ 200 mg/kg orally once daily", "protocol": "0.5 g of egg albumin (OVA: manufactured by Sigma) and 0.5 g of K2CO3 (manufactured by Nacalai Tesque) were dissolved in 25 ml of distilled water for injection (OVA solution). 0.5 g of 2,4,6-trinitrobenzenesulfonic acid (TNBS: manufactured by Nacalai Tesque) was dissolved in 25 ml of 0.1 M K2CO3 (TNBS solution). The OVA solution and the TNBS solution were mixed, and the mixture was stirred overnight at room temperature. The stirred solution was dialyzed against 0.01 M NaHCO3 (manufactured by Nacalai Tesque) through a dialyzer (Spectra/Por Membrane MWCO:10,000, manufactured by Spectrum Medical Industries Inc.). The dialyzate was subjected to protein quantitative determination by BCA Protein Assay Reagent (manufactured by Pierce).\nA 1:1 emulsion of complete Freunt adjuvant (CFA: manufactured by Difco Laboratories) and 2 mg/ml of TNP-OVA was subcutaneously injected (sensitized) into the back of a 5-week-old SJL/J mouse (SJL/JorlIcoCrj, male, supplied by Nippon Charles River) at a rate of 0.1 ml/head. […]\nThe symptom of colitis from the division day to day 5 after the division was observed. The symptom of colitis was scored according to the conditions of stool [normal stool (score:0), loose stool (score:1) and diarrhea (score:2)]. […]\nOn the final day of the experiment, after euthanasia with a high concentration of CO2, a large bowel was extracted, and the length thereof was measured. […]"}, "[5]": {"conditions": "rate of compound-reacted cells for 1% of the cell population, 10 μM compound A"}},
  "data": [
    {"smiles": "Clc1c(C2(c3ccc(N4CCOCC4)cc3)CCC2)nn2c1NCCC2", "note": "[compound A, 3-chloro-2-[1-(4-morpholin-4-ylphenyl)cyclobutyl]-4,5,6,7-tetrahydropyrazolo[1,5-a]pyrimidine]", "values": [
      {"measurement": "Compound-reacted cells/presence rate, cell surface marker CD3", "setting": "[1]; [5]", "value": 1.1},
      {"measurement": "Compound-reacted cells/presence rate, cell surface marker CD4", "setting": "[1]; [5]", "value": 0.8},
      {"measurement": "Compound-reacted cells/presence rate, cell surface marker CD40", "setting": "[1]; [5]", "value": 2.7},
      {"measurement": "Compound-reacted cells/presence rate, cell surface marker CD40L in CD3", "setting": "[1]; [5]", "value": 0.8},
      {"measurement": "Compound-reacted cells/presence rate, cell surface marker CD81 in CD3", "setting": "[1]; [5]", "value": 11.1},
      {"measurement": "Compound-reacted cells/presence rate, cell surface marker CD49d", "setting": "[1]; [5]", "value": 2.4},
      {"measurement": "Compound-reacted cells/presence rate, cell surface marker TCRV β3", "setting": "[1]; [5]", "value": 0},
      {"measurement": "Compound-reacted cells/presence rate, cell surface marker TCRV γδ", "setting": "[1]; [5]", "value": 4.4},
      {"measurement": "Compound-reacted cells (%), cell surface marker CD40L in CD3", "setting": "[1]; share of intracellular IFN-γ-positive cells reduced by compound A (total reduction = 100), 10 μM, presence rate 3.94%", "value": 3.3, "unit": "%"},
      {"measurement": "Compound-reacted cells (%), cell surface marker CD81 in CD3", "setting": "[1]; share of intracellular IFN-γ-positive cells reduced by compound A (total reduction = 100), 10 μM, presence rate 4.67%", "value": 51.7, "unit": "%"},
      {"measurement": "Compound-reacted cells (%), cell surface marker TCRV γδ", "setting": "[1]; share of intracellular IFN-γ-positive cells reduced by compound A (total reduction = 100), 10 μM, presence rate 5.39%", "value": 23.8, "unit": "%"},
      {"measurement": "Compound-reacted cells (%), cell surface marker CD40", "setting": "[1]; share of intracellular IFN-γ-positive cells reduced by compound A (total reduction = 100), 10 μM, presence rate 9.14%", "value": 24.3, "unit": "%"},
      {"measurement": "Compound-reacted cells (%), cell surface marker CD49d", "setting": "[1]; share of intracellular IFN-γ-positive cells reduced by compound A (total reduction = 100), 10 μM, presence rate 16.4%", "value": 39.6, "unit": "%"},
      {"measurement": "Compound-reacted cells (%), cell surface marker CD4", "setting": "[1]; share of intracellular IFN-γ-positive cells reduced by compound A (total reduction = 100), 10 μM, presence rate 45.7%", "value": 55.6, "unit": "%"},
      {"measurement": "Compound-reacted cells (%), cell surface marker CD3", "setting": "[1]; share of intracellular IFN-γ-positive cells reduced by compound A (total reduction = 100), 10 μM, presence rate 92.1%", "value": 103.4, "unit": "%"},
      {"measurement": "Compound-reacted cells (%), cell surface marker TCRV β3", "setting": "[1]; share of intracellular IFN-γ-positive cells reduced by compound A (total reduction = 100), 10 μM, presence rate 100%", "value": 0, "unit": "%"},
      {"measurement": "Gene chip expression signal, CD81 (101495_at)", "setting": "[2]", "value": 195.1},
      {"measurement": "Gene chip expression signal, CDw40 (92962_at)", "setting": "[2]", "value": 63.9},
      {"measurement": "Gene chip expression signal, DAP12 (100397_at)", "setting": "[2]", "value": 1144.2},
      {"measurement": "Gene chip expression signal, IL-9 (96574_at)", "setting": "[2]", "value": 96.4},
      {"measurement": "Gene chip expression signal, IL-10Rβ (99491_at)", "setting": "[2]", "value": 1000.9},
      {"measurement": "Gene chip expression signal, IL-17 (99349_at)", "setting": "[2]", "value": 172.4},
      {"measurement": "Gene chip expression signal, Integrin β1 (100124_r_at)", "setting": "[2]", "value": 149.4},
      {"measurement": "Gene chip expression signal, Lymphotoxin α (102630_s_at)", "setting": "[2]", "value": 220.6},
      {"measurement": "Gene chip expression signal, Paired-Ig-like receptor Al (100328_s_at)", "setting": "[2]", "value": 791.2},
      {"measurement": "Gene chip expression signal, TCRV γ4 (102745_at)", "setting": "[2]", "value": 33.1},
      {"measurement": "IFN-γ gene expression (DNA chip analysis)", "setting": "[2]", "value": "decreased"},
      {"measurement": "induction of the symptom of colitis by cells transferred into normal mice", "setting": "[3]", "value": "do not induce the symptom of colitis"}
    ]},
    {"smiles": "O=C(O)c1cc(/N=N/c2ccc(S(=O)(=O)Nc3ccccn3)cc2)ccc1O", "note": "[SSZ, sulfasalazine]", "values": [
      {"measurement": "Intestinal Length mm(S.D)", "setting": "[4]; large bowel length, day 5 after division, control 87.8 (10.3), Dunnet test * 0.01<p<0.05, ** p<0.01", "value": "103.1 (8.3)** mm"},
      {"measurement": "Symptom of colitis (S.D)", "setting": "[4]; stool score 0-2, SJL/J mice, control 1.75 (0.46), Steel test * 0.01<p<0.05", "value": "0.71 (0.71)*"}
    ]}
  ]
}
